The values below come from patent publication US20240262814A1, “MODULATORS OF TREX1” (Constellation Pharmaceuticals, Inc., priority 2021, published 2024).

SMILES strings stand for the structures.

The target in one assay is T1, human TREX1 (Homo sapiens, UniProt Q9NSU2).
T1 construct: N-terminally His-Tev tagged full length human TREX1; made in house; host or cells: E. coli
T1 sequence (Q9NSU2 1-314): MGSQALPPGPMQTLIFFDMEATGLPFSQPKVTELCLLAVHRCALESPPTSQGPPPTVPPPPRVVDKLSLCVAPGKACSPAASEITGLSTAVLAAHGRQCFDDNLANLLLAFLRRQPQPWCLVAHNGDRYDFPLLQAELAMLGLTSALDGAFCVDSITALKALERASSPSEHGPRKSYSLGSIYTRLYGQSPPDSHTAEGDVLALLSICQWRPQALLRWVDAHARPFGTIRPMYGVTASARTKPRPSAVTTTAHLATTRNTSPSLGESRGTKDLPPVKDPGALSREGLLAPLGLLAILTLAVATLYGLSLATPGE
Kind of assay: hTREX1 Biochemical Assay (fluorescence, dsDNA substrate degradation). Conditions: full length human TREX1, 4 h pre-incubation, 18 h reaction at 25° C. A digest of the protocol: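 His-Tev-tagged full-length E. coli-expressed enzyme (4 pM final) preincubated with compound 4 h at 25° C., then 60 nM quenched-fluorophore dsDNA added in Tris pH 7.4, 5 mM MgCl2, 1% DMSO. After 18 h at 25° C., EDTA-quenched; fluorescence 615 nm (ex 570 nm); IC50 from four-parameter fit versus EDTA and no-inhibitor controls.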

The target of a further assay is T2, mouse TREX1 (Mus musculus, UniProt Q91XB0).
T2 construct: N-terminally His-Tev tagged full length mouse TREX1; made in house; host or cells: E. coli
T2 sequence (Q91XB0 1-314): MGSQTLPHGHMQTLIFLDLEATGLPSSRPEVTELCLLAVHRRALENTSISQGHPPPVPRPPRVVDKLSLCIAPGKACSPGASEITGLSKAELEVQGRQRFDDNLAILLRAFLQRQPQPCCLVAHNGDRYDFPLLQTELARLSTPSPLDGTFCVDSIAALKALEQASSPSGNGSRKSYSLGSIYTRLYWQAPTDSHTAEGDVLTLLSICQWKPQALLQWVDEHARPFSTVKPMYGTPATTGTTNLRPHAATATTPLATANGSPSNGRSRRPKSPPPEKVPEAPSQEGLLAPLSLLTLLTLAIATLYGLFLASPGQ
Kind of assay: mTREX1 Biochemical Assay (fluorescence, dsDNA substrate degradation). To be noted: full length mouse TREX1, 4 h pre-incubation, 18 h reaction at 25° C. A digest of the protocol: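 Full-length His-Tev mouse TREX1 (E. coli) was preincubated with compound 4 h at 25 °C, then run 18 h at 25 °C. Finals were 6 pM enzyme, 60 nM TEX615/quencher dsDNA, 1% DMSO, pH 7.4 Tris with 5 mM MgCl2. After EDTA quench, fluorescence was read at 615 nm; IC50 by four-parameter fit against EDTA and no-inhibitor controls.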

A further assay addresses T3, human TREX2 (Homo sapiens, UniProt Q9BQ50).
T3 construct: human TREX2 (residues M44-A279, expressed in E. coli); made in house; host or cells: E. coli
T3 sequence (Q9BQ50 44-279 isoform Q9BQ50-1): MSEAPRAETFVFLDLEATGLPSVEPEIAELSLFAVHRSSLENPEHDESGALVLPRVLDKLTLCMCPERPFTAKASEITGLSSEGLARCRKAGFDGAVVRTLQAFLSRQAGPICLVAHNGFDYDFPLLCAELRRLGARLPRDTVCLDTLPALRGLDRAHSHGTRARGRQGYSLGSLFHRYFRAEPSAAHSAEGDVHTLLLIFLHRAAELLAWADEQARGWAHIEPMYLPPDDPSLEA
Kind of assay: hTREX2 Biochemical Assay (selectivity hTREX1 vs hTREX2). Conditions: biochemical selectivity for hTREX1 vs hTREX2. The method in brief: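 His-Tev-tagged human TREX2 (M44-A279, E. coli-expressed) preincubated with compound (10-point dose-response) for 4 h at 25 °C in Tris pH 7.4 buffer with 5 mM MgCl2. Reaction then run with 60 nM TEX615/quencher dsDNA and 50 pM enzyme (1% DMSO) for 18 h at 25 °C and EDTA-quenched. Fluorescence read at 615 nm (ex 570 nm); IC50 by four-parameter fit against pre-quenched and no-inhibitor controls.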

Regarding `CC(c1nc(C(=O)Nc2cnoc2)c(O)c(=O)n1C)C(c1ccc(F)cc1F)c1ccccc1C#N` (single isomer, unassigned) [Example 13 Isomer 1], the half-inhibitory concentration (IC50) against human TREX1 and against mouse TREX1 was under 1 nM throughout. The “hTREX1 vs hTREX2 selectivity” value at human TREX2 is on record as “C (C = >50 fold selective for hTREX1)”.

With `Cn1c([C@@H](C(c2ccccc2C#N)c2ccccc2C#N)C(F)(F)F)nc(C(=O)Nc2cnoc2)c(O)c1=O` (single isomer, unassigned) [Example 21 Isomer 2, 2-(3,3-bis(2-cyanophenyl)-1,1,1-trifluoropropan-2-yl)-5-hydroxy-N-(isoxazol-4-yl)-1-methyl-6-oxo-1,6-dihydropyrimidine-4-carboxamide], the half-maximal inhibitory concentration (IC50) against human TREX1 is 10 to 100 nM; at mouse TREX1 it was over 10 nM. On human TREX2, the “hTREX1 vs hTREX2 selectivity” value is recorded as “C (C = >50 fold selective for hTREX1)”.

`C[C@H](c1nc(C(=O)Nc2cnoc2)c(O)c(=O)n1C)[C@H](c1ccccc1)c1ccccc1C(F)(F)F` (single isomer, unassigned) [Example 14 Isomer 4, 5-Hydroxy-N-(isoxazol-4-yl)-1-methyl-6-oxo-2-(1-phenyl-1-(2-(trifluoromethyl)phenyl)propan-2-yl)-1,6-dihydropyrimidine-4-carboxamide]: the IC50 against human TREX1 was 1 to 10 nM; on mouse TREX1, over 10 nM. Moreover, on human TREX2, the “hTREX1 vs hTREX2 selectivity” value is recorded as “B (B = 25 to 50 fold selective for hTREX1)”.

For `CC(c1nc(C(=O)Nc2cnoc2)c(O)c(=O)n1C)C(c1ccc(F)c(F)c1)c1ccccc1C#N` (single isomer, unassigned) [Example 12 Isomer 4], the IC50 at human TREX1 was 10 to 100 nM; against mouse TREX1 it was over 10 nM. For the same molecule, on human TREX2, the “hTREX1 vs hTREX2 selectivity” value is given as “A (A = <25 fold selective for hTREX1)”.

As for `C[C@H](c1nc(C(=O)Nc2cnoc2)c(O)c(=O)n1C)[C@H](c1ccccc1)c1ccc(C(=O)N(C)C)cc1C#N` (single isomer, unassigned) [Example 16 Isomer 4, 2-(1-(2-cyano-4-(dimethylcarbamoyl)phenyl)-1-phenylpropan-2-yl)-5-hydroxy-N-(isoxazol-4-yl)-1-methyl-6-oxo-1,6-dihydropyrimidine-4-carboxamide], the half-inhibitory concentration (IC50) against human TREX1 and at mouse TREX1 was under 1 nM throughout. For the same molecule, the “hTREX1 vs hTREX2 selectivity” value on human TREX2 is given as “B (B = 25 to 50 fold selective for hTREX1)”.

Turning to `CC(c1nc(C(=O)Nc2cnoc2)c(O)c(=O)n1C)C(c1ccc(F)c(F)c1)c1ccccc1C#N` (single isomer, unassigned) [Example 12 Isomer 3], the concentration for half-maximal inhibition (IC50) against human TREX1 and at mouse TREX1 was under 1 nM in each case. The “hTREX1 vs hTREX2 selectivity” value at human TREX2 is on record as “B (B = 25 to 50 fold selective for hTREX1)”.

`CC(c1nc(C(=O)Nc2cnoc2)c(O)c(=O)n1C)C(c1ccccc1)c1cc(F)ccc1C#N` (single isomer, unassigned) [Example 6 Isomer 3]: the IC50 at human TREX1 was over 100 nM; against mouse TREX1, over 10 nM. Also, the “hTREX1 vs hTREX2 selectivity” value on human TREX2 is “A (A = <25 fold selective for hTREX1)”.

With `CC(c1nc(C(=O)Nc2cnoc2)c(O)c(=O)n1C)C(c1ccc(F)cc1F)c1ccccc1C#N` (single isomer, unassigned) [Example 13 Isomer 3], the values for the concentration for half-maximal inhibition (IC50) against human TREX1 and on mouse TREX1 were 10 to 100 nM and over 10 nM, respectively. Moreover, the “hTREX1 vs hTREX2 selectivity” value at human TREX2 is reported as “B (B = 25 to 50 fold selective for hTREX1)”.

Take `CC(c1nc(C(=O)Nc2cnoc2)c(O)c(=O)n1C)C(c1ccccc1)c1ccc(Cl)cc1C#N` (single isomer, unassigned) [Example 9 Isomer 2]: the IC50 at human TREX1 is over 100 nM; at mouse TREX1, over 10 nM. Also, the “hTREX1 vs hTREX2 selectivity” value on human TREX2 is on record as “B (B = 25 to 50 fold selective for hTREX1)”.

For `CC(c1nc(C(=O)Nc2cnoc2)c(O)c(=O)n1C)C(c1ccc(F)c(F)c1)c1ccccc1C#N` (single isomer, unassigned) [Example 12 Isomer 1], the half-inhibitory concentration (IC50) is 1 to 10 nM against human TREX1 and over 10 nM against mouse TREX1. For the same molecule, the “hTREX1 vs hTREX2 selectivity” value on human TREX2 is reported as “C (C = >50 fold selective for hTREX1)”.

Take `Cn1c(C(C)(C)C(c2ccccc2)c2ccccc2)nc(C(=O)Nc2cnoc2)c(O)c1=O` [Example B, 5-hydroxy-N-(isoxazol-4-yl)-1-methyl-2-(2-methyl-1,1-diphenylpropan-2-yl)-6-oxo-1,6-dihydropyrimidine-4-carboxamide]: the half-inhibitory concentration (IC50) was over 100 nM against human TREX1 and over 10 nM at mouse TREX1. For the same molecule, on human TREX2, the “hTREX1 vs hTREX2 selectivity” value is listed as “A (A = <25 fold selective for hTREX1)”.

For `CC(c1nc(C(=O)Nc2cnoc2)c(O)c(=O)n1C)C(c1ccccc1Cl)c1ccccc1C#N` (single isomer, unassigned) [Example 10 Isomer 4], the IC50 at human TREX1 was under 1 nM; at mouse TREX1, 1 to 10 nM. Further, at human TREX2, the “hTREX1 vs hTREX2 selectivity” value was “C (C = >50 fold selective for hTREX1)”.

`CC(c1nc(C(=O)Nc2cnoc2)c(O)c(=O)n1C)C(c1ccccc1)c1cc(Cl)ccc1C#N` (single isomer, unassigned) [Example 8 Isomer 3]: the values for the IC50 on human TREX1 and at mouse TREX1 were 1 to 10 nM and over 10 nM, respectively. In addition, the “hTREX1 vs hTREX2 selectivity” value at human TREX2 is “C (C = >50 fold selective for hTREX1)”.

On to `Cn1c(CC(c2ccccc2)c2ccccc2)nc(C(=O)Nc2cnoc2)c(O)c1=O` [Example A, 2-(2,2-diphenylethyl)-5-hydroxy-N-(isoxazol-4-yl)-1-methyl-6-oxo-1,6-dihydropyrimidine-4-carboxamide], for which the concentration for half-maximal inhibition (IC50) against human TREX1 is over 100 nM; against mouse TREX1, over 10 nM. Further, the “hTREX1 vs hTREX2 selectivity” value on human TREX2 is on record as “A (A = <25 fold selective for hTREX1)”.

In general, IC50 refers to the concentration that inhibits the measured activity by half. Higher therefore signals weaker potency in that assay.
